Assay results reported in patent US12281122B1, “PI3K inhibitors” (Cogent Biosciences, Inc., priority 2023, dated 2025).

Key:
[1] = system: SKBR3 (PI3Kα-Wild Type) cell line; experiment: HTRF phospho-AKT(S473) cell assay in SKBR3 cells; type: cell-based, human
Summary of the method: (§1)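 pAKT(S473) in lysates read by HTRF after a 2 h, 37 °C compound exposure (12-point 1:3 series, max 0.5% DMSO). SKBR3 (wild type, top 10 μM) received 70 ng/ml PDGF-BB during the final 15 min; T47D (H1047R, top 5 μM) was unstimulated. IC50 values derived from the dose-response.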

[2] = system: T47D (PI3Kα-H1047R) cell line; experiment: HTRF phospho-AKT(S473) cell assay in T47D cells; type: cell-based, human
Summary of the method: as §1

[3] = Homo sapiens, SK-BR-3; HTRF phospho-AKT(S473), SKBR3 (PI3Kα-Wild Type) cells, 2 hours compound incubation, PDGF-BB stimulated
[4] = Homo sapiens; HTRF phospho-AKT(S473), T47D (PI3Kα-H1047R) cells, 2 hours compound incubation
[5] = Homo sapiens, SK-BR-3; SKBR3 (PI3Kα-Wild Type) cells, HTRF phospho-AKT(S473), 2 hours compound incubation, PDGF-BB stimulated
[6] = Homo sapiens; T47D (PI3Kα-H1047R) cells, HTRF phospho-AKT(S473), 2 hours compound incubation

Row | SMILES | IC50 [1, 3] [nM] | IC50 [2, 4] [nM] | IC50 [1, 5] [nM] | IC50 [2, 6] [nM]
1 | Cc1cc([C@@H](C)Nc2ccc(Cl)nc2C(=O)NS(C)(=O)=O)c2nc(N3C[C@@H]4[C@H](C3)[C@H]4c3n[nH]cc3C)n(C)c(=O)c2c1 [Compound 651, 6-chloro-3-(((R)-1-(3,6-dimethyl-2-((1R,5S,6R)-6-(4-methyl-1H-pyrazol-3-yl)-3-azabicyclo[3.1.0]hexan-3-yl)-4-oxo-3,4-dihydroquinazolin-8-yl)ethyl)amino)-N-(methylsulfonyl) picolinamide] | 1000 to 5000 | 250 to 500 |  | 
2 | Cc1cc([C@@H](C)Nc2ccc(Cl)nc2C(=O)NS(C)(=O)=O)c2nc(N3[C@@H]4CC[C@H]3C[C@H](n3ncc5ccccc53)C4)n(C)c(=O)c2c1 [Compound 695, 3-(((R)-1-(2-((1R,3S,5S)-3-(1H-indazol-1-yl)-8-azabicyclo[3.2.1]octan-8-yl)-3,6-dimethyl-4-oxo-3,4-dihydroquinazolin-8-yl)ethyl)amino)-6-chloro-N-(methylsulfonyl) picolinamide] | ≥ 5000 | 250 to 500 |  | 
3 | Cc1cc([C@@H](C)Nc2ccc(Cl)nc2C(=O)NS(C)(=O)=O)c2nc(N3CCC(c4ncn(CC(F)(F)F)n4)CC3)n(C)c(=O)c2c1 [Compound 469, (R)-6-chloro-3-((1-(3,6-dimethyl-4-oxo-2-(4-(1-(2,2,2-trifluoroethyl)-1H-1,2,4-triazol-3-yl)piperidin-1-yl)-3,4-dihydroquinazolin-8-yl)ethyl)amino)-N-(methylsulfonyl) picolinamide] | ≥ 5000 | 250 to 500 |  | 
4 | Cc1cc([C@@H](C)Nc2ccc(Cl)nc2C(=O)NS(C)(=O)=O)c2nc(N3CCC[C@@H](c4nccc(C)n4)C3)n(C)c(=O)c2c1 (mixture of isomers) [Compound 633, 6-chloro-3-(((R)-1-(3,6-dimethyl-2-((RS)-3-(4-methylpyrimidin-2-yl)piperidin-1-yl)-4-oxo-3,4-dihydroquinazolin-8-yl)ethyl)amino)-N-(methylsulfonyl) picolinamide] | ≥ 5000 | 250 to 500 |  | 
5 | CCn1cc(F)c(C2CCN(c3nc4c([C@@H](C)Nc5ccc(Cl)nc5C(=O)NS(C)(=O)=O)cc(C)cc4c(=O)n3C)CC2)n1 [Compound 758, (R)-6-chloro-3-((1-(2-(4-(1-ethyl-4-fluoro-1H-pyrazol-3-yl)piperidin-1-yl)-3,6-dimethyl-4-oxo-3,4-dihydroquinazolin-8-yl)ethyl)amino)-N-(methylsulfonyl) picolinamide] | ≥ 5000 | 250 to 500 |  | 
6 | Cc1cc([C@@H](C)Nc2ccc(Cl)nc2C(=O)NS(C)(=O)=O)c2nc(N3CCC[C@H](Oc4cnccn4)C3)n(C)c(=O)c2c1 [Compound 377, 6-chloro-3-(((R)-1-(3,6-dimethyl-4-oxo-2-((S)-3-(pyrazin-2-yloxy)piperidin-1-yl)-3,4-dihydroquinazolin-8-yl)ethyl)amino)-N-(methylsulfonyl) picolinamide] |  |  | ≥ 5000 | 250 to 500
7 | Cc1cc([C@@H](C)Nc2ccc(Cl)nc2C(=O)NS(C)(=O)=O)c2nc(-c3ccc4c(c3)C(=O)N(C)C4)n(C)c(=O)c2c1 [Compound 776, (R)-6-chloro-3-((1-(3,6-dimethyl-2-(2-methyl-3-oxoisoindolin-5-yl)-4-oxo-3,4-dihydroquinazolin-8-yl)ethyl)amino)-N-(methylsulfonyl) picolinamide] | 1000 to 5000 | 250 to 500 |  | 
8 | Cc1cc([C@@H](C)Nc2ccc(Cl)nc2C(=O)NS(C)(=O)=O)c2nc(-c3ccc(Nc4ccn(C)n4)nc3)n(C)c(=O)c2c1 [Compound 339, (R)-6-chloro-3-((1-(3,6-dimethyl-2-(6-((1-methyl-1H-pyrazol-3-yl)amino)pyridin-3-yl)-4-oxo-3,4-dihydroquinazolin-8-yl)ethyl)amino)-N-(methylsulfonyl) picolinamide] |  |  | 1000 to 5000 | < 250
9 | Cc1cc([C@@H](C)Nc2ccc(Cl)nc2C(=O)NS(C)(=O)=O)c2nc(N3CCC(n4cc(-c5cccnc5)cn4)CC3)n(C)c(=O)c2c1 [Compound 234, (R)-6-chloro-3-((1-(3,6-dimethyl-4-oxo-2-(4-(4-(pyridin-3-yl)-1H-pyrazol-1-yl)piperidin-1-yl)-3,4-dihydroquinazolin-8-yl)ethyl)amino)-N-(methylsulfonyl) picolinamide] |  |  | 1000 to 5000 | < 250
10 | Cc1cc([C@@H](C)Nc2ccc(Cl)nc2C(=O)NS(C)(=O)=O)c2nc(N3CCC[C@@H](Oc4cnccn4)C3)n(C)c(=O)c2c1 [Compound 375, 6-chloro-3-(((R)-1-(3,6-dimethyl-4-oxo-2-((R)-3-(pyrazin-2-yloxy)piperidin-1-yl)-3,4-dihydroquinazolin-8-yl)ethyl)amino)-N-(methylsulfonyl) picolinamide] |  |  | ≥ 5000 | 250 to 500
11 | C[C@@H](Nc1ccc(Cl)nc1C(=O)NS(C)(=O)=O)c1cc(Cl)cc2c(=O)n(C)c(N3C[C@@H]4[C@H](C3)[C@H]4c3ccn(C)n3)nc12 [Compound 451, 6-chloro-3-(((R)-1-(6-chloro-3-methyl-2-((1R,5S,6R)-6-(1-methyl-1H-pyrazol-3-yl)-3-azabicyclo[3.1.0]hexan-3-yl)-4-oxo-3,4-dihydroquinazolin-8-yl)ethyl)amino)-N-(methylsulfonyl) picolinamide] | 1000 to 5000 | < 250 |  | 
12 | Cc1cc([C@@H](C)Nc2ccc(Cl)nc2C(=O)NS(C)(=O)=O)c2nc(N3CCC[C@H](c4cnc(C)c(C#N)c4)C3)n(C)c(=O)c2c1 (relative stereo) [Compound 615, 6-chloro-3-(((R)-1-(2-((R*)-3-(5-cyano-6-methylpyridin-3-yl)piperidin-1-yl)-3,6-dimethyl-4-oxo-3,4-dihydroquinazolin-8-yl)ethyl)amino)-N-(methylsulfonyl) picolinamide] | 1000 to 5000 | 250 to 500 |  | 
13 | Cc1cc([C@@H](C)Nc2ccc(Cl)nc2C(=O)NS(C)(=O)=O)c2nc(N3CCC(n4cc(F)c(C)n4)CC3)n(C)c(=O)c2c1 [Compound 492, (R)-6-chloro-3-((1-(2-(4-(4-fluoro-3-methyl-1H-pyrazol-1-yl)piperidin-1-yl)-3,6-dimethyl-4-oxo-3,4-dihydroquinazolin-8-yl)ethyl)amino)-N-(methylsulfonyl) picolinamide] | 1000 to 5000 | 250 to 500 |  | 
14 | Cc1cc([C@@H](C)Nc2ccc(Cl)nc2C(=O)NS(C)(=O)=O)c2nc(N3CC[C@@H](c4ccnc(C)n4)C3)n(C)c(=O)c2c1 (relative stereo) [Compound 600, 6-chloro-3-(((R)-1-(3,6-dimethyl-2-((R*)-3-(2-methylpyrimidin-4-yl)pyrrolidin-1-yl)-4-oxo-3,4-dihydroquinazolin-8-yl)ethyl)amino)-N-(methylsulfonyl) picolinamide] | 1000 to 5000 | 250 to 500 |  | 
15 | COc1ccc(N2C[C@H]3C[C@@H]2CN3c2nc3c([C@@H](C)Nc4ccc(Cl)nc4C(=O)NS(C)(=O)=O)cc(C)cc3c(=O)n2C)cn1 [Compound 638, 6-chloro-3-(((R)-1-(2-((1R,4R)-5-(6-methoxypyridin-3-yl)-2,5-diazabicyclo [2.2.1]heptan-2-yl)-3,6-dimethyl-4-oxo-3,4-dihydroquinazolin-8-yl)ethyl)amino)-N-(methylsulfonyl) picolinamide] | ≥ 5000 | 250 to 500 |  | 
16 | Cc1cc([C@@H](C)Nc2ccc(Cl)nc2C(=O)NS(C)(=O)=O)c2nc(N3CCC(n4nncc4C)CC3)n(C)c(=O)c2c1 [Compound 626, (R)-6-chloro-3-((1-(3,6-dimethyl-2-(4-(5-methyl-1H-1,2,3-triazol-1-yl)piperidin-1-yl)-4-oxo-3,4-dihydroquinazolin-8-yl)ethyl)amino)-N-(methylsulfonyl) picolinamide] | 1000 to 5000 | 250 to 500 |  | 
17 | Cc1cc([C@@H](C)Nc2ccc(Cl)nc2C(=O)NS(C)(=O)=O)c2nc(-c3ccc(N4CCN(C)CC4)cc3)n(C)c(=O)c2c1 [Compound 790, (R)-6-chloro-3-((1-(3,6-dimethyl-2-(4-(4-methylpiperazin-1-yl)phenyl)-4-oxo-3,4-dihydroquinazolin-8-yl)ethyl)amino)-N-(methylsulfonyl) picolinamide] | ≥ 5000 | < 250 |  | 
18 | Cc1cc([C@@H](C)Nc2ccc(Cl)nc2C(=O)NS(C)(=O)=O)c2nc(-c3ccc4nc(C)nn4c3)n(C)c(=O)c2c1 [Compound 823, (R)-6-chloro-3-((1-(3,6-dimethyl-2-(2-methyl-[1,2,4]triazolo [1,5-a]pyridin-6-yl)-4-oxo-3,4-dihydroquinazolin-8-yl)ethyl)amino)-N-(methylsulfonyl) picolinamide] | ≥ 5000 | 500 to 1000 |  | 
19 | Cc1cc([C@@H](C)Nc2ccc(Cl)nc2C(=O)NS(C)(=O)=O)c2nc(N3CCC[C@@H](c4cnc(C)nc4)C3)n(C)c(=O)c2c1 (relative stereo) [Compound 645, 6-chloro-3-(((R)-1-(3,6-dimethyl-2-((R*)-3-(2-methylpyrimidin-5-yl)piperidin-1-yl)-4-oxo-3,4-dihydroquinazolin-8-yl)ethyl)amino)-N-(methylsulfonyl) picolinamide] | ≥ 5000 | 500 to 1000 |  | 
20 | Cc1cc([C@@H](C)Nc2ccc(Cl)nc2C(=O)NS(C)(=O)=O)c2nc(N3C[C@@H]4[C@H](C3)[C@H]4n3ccc(C)n3)n(C)c(=O)c2c1 [Compound 416, 6-chloro-3-(((R)-1-(3,6-dimethyl-2-((1R,5S,6S)-6-(3-methyl-1H-pyrazol-1-yl)-3-azabicyclo[3.1.0]hexan-3-yl)-4-oxo-3,4-dihydroquinazolin-8-yl)ethyl)amino)-N-(methylsulfonyl) picolinamide] |  |  | 1000 to 5000 | < 250
